From PubChem BioAssay AID252 (DTP/NCI, 2004)
Where “and” joins values, the source holds several entries; their conditions need not be identical. Equal entries are not always repeated. Inconclusive results and toxic doses are left out.

System: BDF1 mice, intracerebral L1210 leukemia, survival T/C
Assay: NCI In Vivo Anticancer Drug Screen. Data for tumor model L1210 Leukemia (intracerebral) in B6D2F1 (BDF1) mice
Conditions: higher = longer survival
In short: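 Tumour was transplanted, animals received compound or vehicle, then survival in each group was measured and treated divided by control.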

## CN(C)/N=N/c1nc[nH]c1C(N)=O
endpoint: mean survival time, dose: 53.0 mg/kg/injection, schedule: Q01DX Z (ip), vehicle: carboxymethylcellulose (CMC)
  T/C: 106 % of control
endpoint: mean survival time, dose: 80.0 mg/kg/injection, schedule: Q01DX Z (ip), vehicle: carboxymethylcellulose (CMC)
  T/C: 104 % of control
endpoint: mean survival time, dose: 120.0 mg/kg/injection, schedule: Q01DX Z (ip), vehicle: carboxymethylcellulose (CMC)
  T/C: 112 % of control
endpoint: mean survival time, dose: 180.0 mg/kg/injection, schedule: Q01DX Z (ip), vehicle: carboxymethylcellulose (CMC)
  T/C: 93 % of control
endpoint: mean survival time, dose: 317.0 mg/kg/injection, schedule: Q01DX001 (ip), vehicle: carboxymethylcellulose (CMC)
  T/C: 101 % of control
endpoint: mean survival time, dose: 482.0 mg/kg/injection, schedule: Q01DX001 (ip), vehicle: carboxymethylcellulose (CMC)
  T/C: 87 % of control
endpoint: median survival time, dose: 10.0 mg/kg/injection, schedule: Q01DX009 (ip), vehicle: carboxymethylcellulose (CMC)
  T/C: 111 % of control
endpoint: median survival time, dose: 20.0 mg/kg/injection, schedule: Q01DX009 (ip), vehicle: carboxymethylcellulose (CMC)
  T/C: 111 % of control
endpoint: median survival time, dose: 40.0 mg/kg/injection, schedule: Q01DX009 (ip), vehicle: carboxymethylcellulose (CMC)
  T/C: 114 % of control
endpoint: median survival time, dose: 80.0 mg/kg/injection, schedule: Q01DX009 (ip), vehicle: carboxymethylcellulose (CMC)
  T/C: 117 % of control
endpoint: median survival time, dose: 160.0 mg/kg/injection, schedule: Q01DX009 (ip), vehicle: carboxymethylcellulose (CMC)
  T/C: 118 % of control
endpoint: median survival time, dose: 200.0 mg/kg/injection, schedule: Q01DX009 (ip), vehicle: carboxymethylcellulose (CMC)
  T/C: 103 % of control
endpoint: median survival time, dose: 300.0 mg/kg/injection, schedule: Q01DX009 (ip), vehicle: carboxymethylcellulose (CMC)
  T/C: 94 % of control
endpoint: median survival time, dose: 320.0 mg/kg/injection, schedule: Q01DX009 (ip), vehicle: carboxymethylcellulose (CMC)
  T/C: 108 % of control
endpoint: median survival time, dose: 400.0 mg/kg/injection, schedule: Q01DX009 (ip), vehicle: carboxymethylcellulose (CMC)
  T/C: 111 % of control
endpoint: median survival time, dose: 600.0 mg/kg/injection, schedule: Q01DX009 (ip), vehicle: carboxymethylcellulose (CMC)
  T/C: 94 % of control

## CS(C)=O
endpoint: mean survival time, dose: 0.5 mg/kg/injection, schedule: Q#C X009 (adlb), vehicle: water
  T/C: 102 % of control
endpoint: mean survival time, dose: 1.0 mg/kg/injection, schedule: Q#C X009 (adlb), vehicle: water
  T/C: 102 % of control
endpoint: mean survival time, dose: 2.0 mg/kg/injection, schedule: Q#C X009 (adlb), vehicle: water
  T/C: 101 % of control
endpoint: mean survival time, dose: 4.0 mg/kg/injection, schedule: Q#C X009 (adlb), vehicle: water
  T/C: 101 % of control
endpoint: mean survival time, dose: 8.0 mg/kg/injection, schedule: Q#C X009 (adlb), vehicle: water
  T/C: 98 % of control
endpoint: mean survival time, dose: 10.0 mg/kg/injection, schedule: Q01DX001 (ip), vehicle: DMSO
  T/C: 110 % of control
endpoint: mean survival time, dose: 25.0 mg/kg/injection, schedule: Q01DX001 (ip), vehicle: DMSO
  T/C: 101 % of control
endpoint: mean survival time, dose: 35.0 mg/kg/injection, schedule: Q01DX001 (ip), vehicle: DMSO
  T/C: 101 % of control
endpoint: mean survival time, dose: 50.0 mg/kg/injection, schedule: Q01DX001 (ip), vehicle: DMSO
  T/C: 101 % of control
endpoint: mean survival time, dose: 0.5 % drug in feed or water or air, schedule: Q#C X009 (oral), vehicle: other
  T/C: 102 % of control
endpoint: mean survival time, dose: 1.0 % drug in feed or water or air, schedule: Q#C X009 (oral), vehicle: other
  T/C: 102 % of control
endpoint: mean survival time, dose: 1.0 grams/kg/injection, schedule: Q01DX001 (ip), vehicle: Klucel (hydroxypropylcellulose) (HPC)
  T/C: 110 % of control
endpoint: mean survival time, dose: 2.0 % drug in feed or water or air, schedule: Q#C X009 (oral), vehicle: other
  T/C: 101 % of control
endpoint: mean survival time, dose: 2.1 grams/kg/injection, schedule: Q01DX001 (ip), vehicle: Klucel (hydroxypropylcellulose) (HPC)
  T/C: 101 % of control
endpoint: mean survival time, dose: 4.0 % drug in feed or water or air, schedule: Q#C X009 (oral), vehicle: other
  T/C: 101 % of control
endpoint: mean survival time, dose: 8.0 % drug in feed or water or air, schedule: Q#C X009 (oral), vehicle: other
  T/C: 98 % of control
endpoint: median survival time, dose: 1.0 mg/kg/injection, schedule: Q#C X009 (oral), vehicle: water
  T/C: 103 % of control and 118 % of control
endpoint: median survival time, dose: 2.0 mg/kg/injection, schedule: Q#C X009 (oral), vehicle: water
  T/C: 101 % of control (2×) and 105 % of control
endpoint: median survival time, dose: 4.0 mg/kg/injection, schedule: Q#C X009 (oral), vehicle: water
  T/C: 103 % of control and 107 % of control and 98 % of control
endpoint: median survival time, dose: 8.0 mg/kg/injection, schedule: Q#C X009 (oral), vehicle: water
  T/C: 101 % of control and 83 % of control and 97 % of control

## COc1ccc(NC(=O)N(C)N=O)cc1
endpoint: mean survival time, dose: 67.0 mg/kg/injection, schedule: Q01DX001 (ip), vehicle: carboxymethylcellulose (CMC)
  T/C: 94 % of control
endpoint: mean survival time, dose: 100.0 mg/kg/injection, schedule: Q01DX001 (ip), vehicle: carboxymethylcellulose (CMC)
  T/C: 90 % of control

## CC1CCCC(NC(=O)N(CCCl)N=O)C1 (configuration not stated)
endpoint: mean survival time, dose: 27.0 mg/kg/injection, schedule: Q01DX001 (ip), vehicle: other
  T/C: 174 % of control
endpoint: mean survival time, dose: 42.0 mg/kg/injection, schedule: Q01DX001 (ip), vehicle: other
  T/C: 150 % of control and 251 % of control
endpoint: mean survival time, dose: 62.0 mg/kg/injection, schedule: Q01DX001 (ip), vehicle: other
  T/C: 256 % of control and 273 % of control
endpoint: mean survival time, dose: 71.0 mg/kg/injection, schedule: Q01DX001 (ip), vehicle: other
  T/C: 261 % of control
endpoint: mean survival time, dose: 93.0 mg/kg/injection, schedule: Q01DX001 (ip), vehicle: other
  T/C: 205 % of control and 223 % of control
endpoint: mean survival time, dose: 286.0 mg/kg/injection, schedule: Q01DX001 (ip), vehicle: other
  T/C: 92 % of control

## CC12CC3(C)CC(C)(C1)CC(NC(=O)N(CCCl)N=O)(C2)C3
endpoint: mean survival time, dose: 45.0 mg/kg/injection, schedule: Q01DX001 (ip), vehicle: other
  T/C: 95 % of control
endpoint: mean survival time, dose: 60.0 mg/kg/injection, schedule: Q01DX001 (ip), vehicle: other
  T/C: 97 % of control
endpoint: mean survival time, dose: 90.0 mg/kg/injection, schedule: Q01DX001 (ip), vehicle: other
  T/C: 104 % of control
endpoint: mean survival time, dose: 125.0 mg/kg/injection, schedule: Q01DX001 (ip), vehicle: other
  T/C: 110 % of control
endpoint: mean survival time, dose: 187.0 mg/kg/injection, schedule: Q01DX001 (ip), vehicle: other
  T/C: 112 % of control

## CC(=O)OCC1OC(n2cnc3c(=S)nc[nH]c32)C(OC(C)=O)C1OC(C)=O (configuration not stated)
endpoint: mean survival time, dose: 25.0 mg/kg/injection, schedule: Q01DX Z (ip), vehicle: carboxymethylcellulose (CMC)
  T/C: 112 % of control and 117 % of control
endpoint: mean survival time, dose: 100.0 mg/kg/injection, schedule: Q01DX Z (ip), vehicle: carboxymethylcellulose (CMC)
  T/C: 157 % of control
endpoint: mean survival time, dose: 200.0 mg/kg/injection, schedule: Q01DX Z (ip), vehicle: carboxymethylcellulose (CMC)
  T/C: 121 % of control and 87 % of control

## CNC1=C(N2CC2)C(=O)C(NC)=C(N2CC2)C1=O
endpoint: mean survival time, dose: 0.05 mg/kg/injection, schedule: Q01DX009 (ip), vehicle: saline
  T/C: 106 % of control
endpoint: mean survival time, dose: 0.1 mg/kg/injection, schedule: Q01DX009 (ip), vehicle: saline
  T/C: 111 % of control
endpoint: mean survival time, dose: 0.2 mg/kg/injection, schedule: Q01DX009 (ip), vehicle: saline
  T/C: 160 % of control
endpoint: mean survival time, dose: 0.3 mg/kg/injection, schedule: Q01DX009 (ip), vehicle: saline
  T/C: 119 % of control
endpoint: mean survival time, dose: 0.4 mg/kg/injection, schedule: Q01DX009 (ip), vehicle: saline
  T/C: 103 % of control
endpoint: mean survival time, dose: 0.6 mg/kg/injection, schedule: Q01DX009 (ip), vehicle: saline
  T/C: 160 % of control

## CC[n+]1c(-c2ccccc2)c2cc(N)ccc2c2ccc(N)cc21
endpoint: mean survival time, dose: 1.25 mg/kg/injection, schedule: Q01DX Z (ip), vehicle: saline
  T/C: 104 % of control
endpoint: mean survival time, dose: 2.5 mg/kg/injection, schedule: Q01DX Z (ip), vehicle: saline
  T/C: 100 % of control
endpoint: mean survival time, dose: 5.0 mg/kg/injection, schedule: Q01DX Z (ip), vehicle: saline
  T/C: 101 % of control
endpoint: mean survival time, dose: 7.5 mg/kg/injection, schedule: Q01DX Z (ip), vehicle: saline
  T/C: 100 % of control
endpoint: mean survival time, dose: 15.0 mg/kg/injection, schedule: Q01DX Z (ip), vehicle: saline
  T/C: 86 % of control

## O=NN(CCCl)C(=O)NC1CC2CCC1C2 (configuration not stated)
endpoint: mean survival time, dose: 14.5 mg/kg/injection, schedule: Q01DX001 (ip), vehicle: other
  T/C: 124 % of control
endpoint: mean survival time, dose: 26.0 mg/kg/injection, schedule: Q01DX001 (ip), vehicle: carboxymethylcellulose (CMC)
  T/C: 196 % of control
endpoint: mean survival time, dose: 29.25 mg/kg/injection, schedule: Q01DX001 (oral), vehicle: other
  T/C: 162 % of control and 176 % of control and 191 % of control
endpoint: mean survival time, dose: 39.0 mg/kg/injection, schedule: Q01DX001 (ip), vehicle: other
  T/C: 236 % of control
endpoint: mean survival time, dose: 41.0 mg/kg/injection, schedule: Q01DX001 (ip), vehicle: carboxymethylcellulose (CMC)
  T/C: 247 % of control and 265 % of control
endpoint: mean survival time, dose: 58.5 mg/kg/injection, schedule: Q01DX001 (oral), vehicle: other
  T/C: 306 % of control and 356 % of control and 442 % of control
endpoint: mean survival time, dose: 62.0 mg/kg/injection, schedule: Q01DX001 (ip), vehicle: carboxymethylcellulose (CMC)
  T/C: 303 % of control and 306 % of control
endpoint: mean survival time, dose: 87.0 mg/kg/injection, schedule: Q01DX001 (ip), vehicle: other
  T/C: 151 % of control
endpoint: mean survival time, dose: 93.0 mg/kg/injection, schedule: Q01DX001 (ip), vehicle: carboxymethylcellulose (CMC)
  T/C: 188 % of control and 268 % of control
endpoint: mean survival time, dose: 117.0 mg/kg/injection, schedule: Q01DX001 (oral), vehicle: other
  T/C: 111 % of control and 154 % of control and 294 % of control
endpoint: mean survival time, dose: 139.0 mg/kg/injection, schedule: Q01DX001 (ip), vehicle: carboxymethylcellulose (CMC)
  T/C: 105 % of control and 101 % of control

## O=NN(CCF)C(=O)Nc1c[nH]c(=O)[nH]c1=O
endpoint: mean survival time, dose: 9.0 mg/kg/injection, schedule: Q01DX001 (ip), vehicle: carboxymethylcellulose (CMC)
  T/C: 103 % of control
endpoint: mean survival time, dose: 13.0 mg/kg/injection, schedule: Q01DX001 (ip), vehicle: carboxymethylcellulose (CMC)
  T/C: 105 % of control
endpoint: mean survival time, dose: 20.0 mg/kg/injection, schedule: Q01DX001 (ip), vehicle: carboxymethylcellulose (CMC)
  T/C: 110 % of control
